Assay results reported in PubChem BioAssay (NCI).
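Grown in 96-well plates, cells were treated for 48 hours with each compound at five concentrations. Insufficient inhibition: endpoint recorded as highest concentration tested. Definition used: TGI = concentration required for complete inhibition of growth.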

Legend:
Assay in all cases: growth of human tumour cells (NCI), 48 h
786-0 renal = test system: 786-0 renal
A498 renal = test system: A498 renal
A549 NSCLC = test system: A549 NSCLC
ACHN renal = test system: ACHN renal
BT-549 breast = test system: BT-549 breast
CAKI-1 renal = test system: CAKI-1 renal
COLO 205 colon = test system: COLO 205 colon
DU-145 prostate = test system: DU-145 prostate
EKVX NSCLC = test system: EKVX NSCLC
HCC-2998 colon = test system: HCC-2998 colon
HCT-116 colon = test system: HCT-116 colon
HCT-15 colon = test system: HCT-15 colon
HOP-62 NSCLC = test system: HOP-62 NSCLC
HOP-92 NSCLC = test system: HOP-92 NSCLC
HT29 colon = test system: HT29 colon
IGROV1 ovarian = test system: IGROV1 ovarian
K-562 leukemia = test system: K-562 leukemia
KM12 colon = test system: KM12 colon
LOX IMVI melanoma = test system: LOX IMVI melanoma
M14 melanoma = test system: M14 melanoma
MALME-3M melanoma = test system: MALME-3M melanoma
MCF7 breast = test system: MCF7 breast
MDA-MB-231 breast = test system: MDA-MB-231 breast
MDA-MB-435 = test system: MDA-MB-435
MDA-N = test system: MDA-N
MOLT-4 leukemia = test system: MOLT-4 leukemia
NCI-H226 lung = test system: NCI-H226 lung
NCI-H23 lung = test system: NCI-H23 lung
NCI-H460 lung = test system: NCI-H460 lung
NCI-H522 lung = test system: NCI-H522 lung
NCI/ADR-RES ovarian = test system: NCI/ADR-RES ovarian
OVCAR-3 ovarian = test system: OVCAR-3 ovarian
OVCAR-4 ovarian = test system: OVCAR-4 ovarian
OVCAR-5 ovarian = test system: OVCAR-5 ovarian
OVCAR-8 ovarian = test system: OVCAR-8 ovarian
PC-3 prostate = test system: PC-3 prostate
RPMI-8226 leukemia = test system: RPMI-8226 leukemia
RXF 393 renal = test system: RXF 393 renal
SF-268 CNS = test system: SF-268 CNS
SF-295 CNS = test system: SF-295 CNS
SF-539 CNS = test system: SF-539 CNS
SK-MEL-2 melanoma = test system: SK-MEL-2 melanoma
SK-MEL-28 melanoma = test system: SK-MEL-28 melanoma
SK-MEL-5 melanoma = test system: SK-MEL-5 melanoma
SK-OV-3 ovarian = test system: SK-OV-3 ovarian
SN12C renal = test system: SN12C renal
SNB-19 CNS = test system: SNB-19 CNS
SNB-75 CNS = test system: SNB-75 CNS
SR leukemia = test system: SR leukemia
SW-620 colon = test system: SW-620 colon
T-47D breast = test system: T-47D breast
TK-10 renal = test system: TK-10 renal
U251 CNS = test system: U251 CNS
UACC-257 melanoma = test system: UACC-257 melanoma
UACC-62 melanoma = test system: UACC-62 melanoma
UO-31 renal = test system: UO-31 renal
CCRF-CEM leukemia = test system: CCRF-CEM leukemia
HL-60(TB) leukemia = test system: HL-60(TB) leukemia

SMILES: Cc1ncc(COP(=O)(O)O)c(/C=C2\SC(=S)NC2=O)c1O
- TGI (786-0 renal): > 100 µM
- TGI (A498 renal): > 100 µM
- TGI (A549 NSCLC): > 100 µM
- TGI (ACHN renal): > 100 µM
- TGI (BT-549 breast): > 100 µM
- TGI (CAKI-1 renal): > 100 µM
- TGI (COLO 205 colon): > 100 µM
- TGI (DU-145 prostate): > 100 µM
- TGI (EKVX NSCLC): > 100 µM
- TGI (HCC-2998 colon): > 100 µM
- TGI (HCT-116 colon): > 100 µM
- TGI (HCT-15 colon): > 100 µM
- TGI (HOP-62 NSCLC): > 100 µM
- TGI (HOP-92 NSCLC): > 100 µM
- TGI (HT29 colon): > 100 µM
- TGI (IGROV1 ovarian): > 100 µM
- TGI (K-562 leukemia): > 100 µM
- TGI (KM12 colon): > 100 µM
- TGI (LOX IMVI melanoma): > 100 µM
- TGI (M14 melanoma): > 100 µM
- TGI (MALME-3M melanoma): > 100 µM
- TGI (MCF7 breast): > 100 µM
- TGI (MDA-MB-231 breast): > 100 µM
- TGI (MDA-MB-435): > 100 µM
- TGI (MDA-N): > 100 µM
- TGI (MOLT-4 leukemia): > 100 µM
- TGI (NCI-H226 lung): > 100 µM
- TGI (NCI-H23 lung): > 100 µM
- TGI (NCI-H460 lung): > 100 µM
- TGI (NCI-H522 lung): > 100 µM
- TGI (NCI/ADR-RES ovarian): > 100 µM
- TGI (OVCAR-3 ovarian): > 100 µM
- TGI (OVCAR-4 ovarian): > 100 µM
- TGI (OVCAR-5 ovarian): > 100 µM
- TGI (OVCAR-8 ovarian): > 100 µM
- TGI (PC-3 prostate): > 100 µM
- TGI (RPMI-8226 leukemia): > 100 µM
- TGI (RXF 393 renal): > 100 µM
- TGI (SF-268 CNS): > 100 µM
- TGI (SF-295 CNS): > 100 µM
- TGI (SF-539 CNS): > 100 µM
- TGI (SK-MEL-2 melanoma): > 100 µM
- TGI (SK-MEL-28 melanoma): > 100 µM
- TGI (SK-MEL-5 melanoma): > 100 µM
- TGI (SK-OV-3 ovarian): > 100 µM
- TGI (SN12C renal): > 100 µM
- TGI (SNB-19 CNS): > 100 µM
- TGI (SNB-75 CNS): > 100 µM
- TGI (SR leukemia): > 100 µM
- TGI (SW-620 colon): > 100 µM
- TGI (T-47D breast): > 100 µM
- TGI (TK-10 renal): > 100 µM
- TGI (U251 CNS): > 100 µM
- TGI (UACC-257 melanoma): > 100 µM
- TGI (UACC-62 melanoma): > 100 µM
- TGI (UO-31 renal): > 100 µM

SMILES: O=C(O)c1ccccc1C1c2ccccc2Oc2ccccc21
- TGI (786-0 renal): > 100 µM
- TGI (A498 renal): 82.1 µM
- TGI (A549 NSCLC): > 100 µM
- TGI (ACHN renal): > 100 µM
- TGI (BT-549 breast): > 100 µM
- TGI (CAKI-1 renal): > 100 µM
- TGI (CCRF-CEM leukemia): > 100 µM
- TGI (DU-145 prostate): > 100 µM
- TGI (EKVX NSCLC): > 100 µM
- TGI (HCT-116 colon): > 100 µM
- TGI (HCT-15 colon): > 100 µM
- TGI (HL-60(TB) leukemia): > 100 µM
- TGI (HOP-62 NSCLC): > 100 µM
- TGI (HOP-92 NSCLC): 77.5 µM
- TGI (HT29 colon): > 100 µM
- TGI (IGROV1 ovarian): > 100 µM
- TGI (K-562 leukemia): > 100 µM
- TGI (KM12 colon): > 100 µM
- TGI (LOX IMVI melanoma): > 100 µM
- TGI (M14 melanoma): > 100 µM
- TGI (MALME-3M melanoma): > 100 µM
- TGI (MDA-MB-231 breast): > 100 µM
- TGI (MDA-MB-435): > 100 µM
- TGI (MDA-N): > 100 µM
- TGI (MOLT-4 leukemia): > 100 µM
- TGI (NCI-H226 lung): 65.7 µM
- TGI (NCI-H23 lung): > 100 µM
- TGI (NCI-H460 lung): > 100 µM
- TGI (NCI-H522 lung): > 100 µM
- TGI (NCI/ADR-RES ovarian): > 100 µM
- TGI (OVCAR-3 ovarian): 90.1 µM
- TGI (OVCAR-4 ovarian): > 100 µM
- TGI (OVCAR-5 ovarian): > 100 µM
- TGI (OVCAR-8 ovarian): > 100 µM
- TGI (PC-3 prostate): > 100 µM
- TGI (RPMI-8226 leukemia): > 100 µM
- TGI (RXF 393 renal): > 100 µM
- TGI (SF-268 CNS): > 100 µM
- TGI (SF-295 CNS): > 100 µM
- TGI (SK-MEL-2 melanoma): 86.5 µM
- TGI (SK-MEL-28 melanoma): > 100 µM
- TGI (SK-MEL-5 melanoma): > 100 µM
- TGI (SN12C renal): > 100 µM
- TGI (SNB-19 CNS): > 100 µM
- TGI (SNB-75 CNS): 85.8 µM
- TGI (SR leukemia): > 100 µM
- TGI (SW-620 colon): > 100 µM
- TGI (T-47D breast): > 100 µM
- TGI (TK-10 renal): > 100 µM
- TGI (U251 CNS): > 100 µM
- TGI (UACC-257 melanoma): > 100 µM
- TGI (UACC-62 melanoma): > 100 µM
- TGI (UO-31 renal): > 100 µM
